{
  "source": "patent US20200338012A1",
  "about": "(TAHO Pharmaceuticals Ltd., priority 2019, published 2020)",
  "origin": "cited, not measured here",
  "key": {"[1]": {"conditions": "oral tablet"}},
  "data": [
    {"smiles": "COc1ccc(-n2nc(C(N)=O)c3c2C(=O)N(c2ccc(N4CCCCC4=O)cc2)CC3)cc1", "note": "[apixaban, Apixaban]", "values": [
      {"measurement": "water solubility", "value": 67.9, "unit": "µg/mL"},
      {"measurement": "bioavailability", "setting": "[1]", "value": 50, "unit": "%"}
    ]}
  ]
}
